Assay results taken from ChEMBL document CHEMBL1141685, “Hexahydro-pyrrolo- and hexahydro-1H-pyrido[1,2-b]pyridazin-2-ones as potent inhibitors of HCV NS5B polymerase” (Bioorg Med Chem Lett, 2008).

Legend:
[1] = Cytotoxicity against human Huh7/C24 cells after 72 hrs […]; type: cell-based, Huh-7
[2] = Apparent permeability from apical to basolateral side in human Caco-2 cell membrane at 10 uM
Hepatitis C virus [3] = experiment: Inhibition of HCV 1b NS5B polymerase by microbeta scintillation counter; set-up: species or system Hepatitis C virus subtype 1b
[4] = Metabolic stability in cynomolgus monkey liver microsomes at 1 uM
[5] = Metabolic stability in human liver microsomes at 1 uM
Hepatitis C virus [6] = experiment: Antiviral activity against HCV 1b infected in human Huh7/C24 cells after 72 hrs by replicon assay; type: functional, organism-based, Hepacivirus hominis; conditions: genotype 1b, Huh-7, 72 h
[7] = Metabolic stability in human liver microsomes assessed as compound remaining at 1 uM after 60 mins; type: ADME, Microsome; conditions: read-out: Stability
[8] = Metabolic stability in cynomolgus monkey liver microsomes assessed as compound remaining at 1 uM after 60 mins; type: ADME, Macaca fascicularis, Microsome; conditions: read-out: Stability
Cynomolgus monkey [9] = experiment: Hepatic blood flow in cynomolgus monkey; type: ADME, organism-based, Macaca fascicularis, Liver
[10] = Fabs in cynomolgus monkey; type: ADME, organism-based, Macaca fascicularis; conditions: in vivo, read-out: Fabs
Cynomolgus monkey [11] = experiment: AUC (0 to infinity) in cynomolgus monkey at 1 mg/kg, iv; type: ADME, organism-based, Macaca fascicularis, Plasma; set-up: time infinity, dose 1 mg/kg, route intravenous; conditions: in vivo
Cynomolgus monkey [12] = experiment: AUC (0 to infinity) in cynomolgus monkey at 1 mg/kg, po; type: ADME, organism-based, Macaca fascicularis, Plasma; set-up: time infinity, dose 1 mg/kg, route oral; conditions: in vivo
[13] = Oral bioavailability in cynomolgus monkey at 1 mg/kg; type: ADME, organism-based, Macaca fascicularis; conditions: in vivo

| Structure (SMILES) | Papp A→B at 10 µM [2] [×10⁻⁶ cm/s] | half-life at 1 µM ([4]; liver microsomes) [min] | half-life at 1 µM ([5]; liver microsomes) [min] | EC50 (Hepatitis C virus [6]) [nM] | remaining at 1 h, 1 µM [7] [%] | half-life at 1 µM ([4]; microsomes) [min] | half-life at 1 µM ([5]; microsomes) [min] | remaining at 1 h, 1 µM [8] [%] | QH (Cynomolgus monkey [9]) [mL/min/kg] | Fa [10] [%] | AUC (Cynomolgus monkey [11]) [ng·h/mL] | AUC (Cynomolgus monkey [12]) [ng·h/mL] | bioavailability [13] [%] | CC50 at 72 h [1] [nM] | IC50 (Hepatitis C virus [3]) [nM] |
| --- | --- | --- | --- | --- | --- | --- | --- | --- | --- | --- | --- | --- | --- | --- | --- |
| CN(c1ccc2c(c1)S(=O)(=O)N=C(C1=C(O)C3CCCN3N(CCC(C)(C)C)C1=O)N2)S(C)(=O)=O (configuration not stated) | – | 17 | > 60 | 3600 | – | – | – | – | – | – | – | – | – | > 33000 | 160 |
| CS(=O)(=O)Nc1ccc2c(c1)S(=O)(=O)N=C(c1c(O)c3cccn3n(Cc3ccc(F)cc3)c1=O)N2 | – | > 60 | > 60 | 12 | 86 | – | – | – | – | – | – | – | – | > 1000 | < 10 |
| CC(C)CCN1C(=O)C(C2=NS(=O)(=O)c3cc(NS(C)(=O)=O)ccc3N2)=C(O)C2CCCN21 (configuration not stated) | 0.2 | – | – | 160 | 65 | 63 | > 60 | – | – | – | – | – | – | > 1000 | 12 |
| CS(=O)(=O)Nc1ccc2c(c1)S(=O)(=O)N=C(C1=C(O)C3CCCN3N(Cc3ccc(F)cc3)C1=O)N2 (configuration not stated) | 0.2 | > 60 | > 60 | 190 | 87 | – | – | 94 | – | – | – | – | – | > 1000 | < 10 |

Continued by falling EC50 (Hepatitis C virus [6]), values first:

| Papp A→B at 10 µM [2] [×10⁻⁶ cm/s] | half-life at 1 µM ([4]; liver microsomes) [min] | half-life at 1 µM ([5]; liver microsomes) [min] | EC50 (Hepatitis C virus [6]) [nM] | remaining at 1 h, 1 µM [7] [%] | half-life at 1 µM ([4]; microsomes) [min] | half-life at 1 µM ([5]; microsomes) [min] | remaining at 1 h, 1 µM [8] [%] | QH (Cynomolgus monkey [9]) [mL/min/kg] | Fa [10] [%] | AUC (Cynomolgus monkey [11]) [ng·h/mL] | AUC (Cynomolgus monkey [12]) [ng·h/mL] | bioavailability [13] [%] | Structure (SMILES) | CC50 at 72 h [1] [nM] | IC50 (Hepatitis C virus [3]) [nM] |
| --- | --- | --- | --- | --- | --- | --- | --- | --- | --- | --- | --- | --- | --- | --- | --- |
| 0.6 | 10 | 4.9 | 1100 | – | – | – | – | – | – | – | – | – | CC(C)(C)CCN1C(=O)C(C2=NS(=O)(=O)c3cc(NS(C)(=O)=O)ccc3N2)=C(O)C2(C)CCCN12 (configuration not stated) | > 33000 | 180 |
| 0.1 | – | – | 300 | 102 | > 60 | > 60 | 100 | – | – | – | – | – | CS(=O)(=O)Nc1ccc2c(c1)S(=O)(=O)N=C(C1=C(O)C3CCCCN3N(Cc3ccc(F)cc3)C1=O)N2 (configuration not stated) | > 1000 | 16 |
| 0.31 | 18 | 52 | 110 | – | – | – | – | – | – | – | – | – | CC(C)(C)CCN1C(=O)C(C2=NS(=O)(=O)c3cc(NS(C)(=O)=O)ccc3N2)=C(O)C2CCCCN21 (configuration not stated) | > 33000 | 41 |
| 0.44 | – | – | 34 | – | 7.5 | 59 | – | 44 | 8 | 5180 | 344 | 7 | CC(C)(C)CCN1C(=O)C(C2=NS(=O)(=O)c3cc(NS(C)(=O)=O)ccc3N2)=C(O)C2CCCN21 (configuration not stated) | > 1000 | < 10 |
